Assay results: patent publication US20070179060A1, “6-(Poly-substituted aryl)-4-aminopicolinates and their use as herbicides” (priority 2006, published 2007)

What was measured:
[1] = system: lambsquarter (Chenopodium album); assay: Postemergence herbicidal activity; assay type: in vivo; conditions: Chenopodium album, post-emergence, 336 h, post-emergent, 140 g ai/ha, after 14 days; read-out: % Control CHEAL
Summary of the method: (§1)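 Plants grown 7-21 days in greenhouse (about 15 h photoperiod, 23-29° C day, 22-28° C night) to first or second true leaf stage. Compounds in acetone/water/isopropanol/DMSO carrier with crop oil concentrate and Triton X-155 sprayed overhead at 187 L/ha; controls received solvent blank. Plants sub-irrigated afterwards; dose responses analysed by probit analysis.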

[2] = system: redroot pigweed (Amaranthus retroflexus); assay: Postemergence herbicidal activity; assay type: in vivo; conditions: Amaranthus retroflexus, post-emergence, 336 h, post-emergent, 140 g ai/ha, after 14 days; read-out: % Control AMARE
Summary of the method: as §1

[3] = system: velvetleaf (Abutilon theophrasti); assay: Postemergence herbicidal activity; assay type: in vivo; conditions: Abutilon theophrasti, post-emergence, 336 h, post-emergent, 140 g ai/ha, after 14 days; read-out: % Control ABUTH
Summary of the method: as §1

[4] = system: lambsquarter (Chenopodium album); assay: Preemergence herbicidal activity; assay type: in vivo; conditions: Chenopodium album, pre-emergence, 480 h; pre-emergent, 140 g ai/ha, after 20-22 days; read-out: % Control CHEAL
Summary of the method: (§2)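 Seeds sown in 70:30 loam (pH about 8.1, about 1.5% organic matter) and sand mix, then sprayed preemergence at 187 L/ha with a track sprayer; controls received solvent blank. Pots kept in greenhouse, about 15 h photoperiod, about 23-29° C. day and 22-28° C. night, top-irrigated.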

[5] = system: redroot pigweed (Amaranthus retroflexus); assay: Preemergence herbicidal activity; assay type: in vivo; conditions: Amaranthus retroflexus, pre-emergence, 480 h; pre-emergent, 140 g ai/ha, after 20-22 days; read-out: % Control AMARE
Summary of the method: as §2

[6] = system: velvetleaf (Abutilon theophrasti); assay: Preemergence herbicidal activity; assay type: in vivo; conditions: Abutilon theophrasti, pre-emergence, 480 h; pre-emergent, 140 g ai/ha, after 20-22 days; read-out: % Control ABUTH
Summary of the method: as §2

Cyperus difformis = assay: Herbicidal activity in transplanted paddy rice; assay type: in vivo; conditions: paddy water application, after 3 weeks; for pest or weed control at 70 g/ha: 70 g ai/ha
Protocol: (§3) Weed seeds or nutlets of the desired test plant species were planted in puddled soil (mud) prepared by mixing a non-sterilized mineral soil (28 percent silt, 18 percent clay, and 54 percent sand, with a pH of about 7.3 to 7.8 and an organic matter content of about 1.0 percent) and water at a ratio of 100 kg of soil to 19 L of water. The prepared mud was dispensed in 250 mL aliquots into 480 mL non-perforated plastic pots with a surface area of 91.6 square centimeters leaving a headspace of 3 centimeters in each pot. […] Seedlings at the second or third leaf stage of growth were transplanted into 650 mL of mud contained in 960 mL non-perforated plastic pots with a surface area of 91.6 square centimeters 4 days prior to herbicide application. The paddy was created by filling the 3 centimeter headspace of the pots with water. When required to ensure good germination and healthy plants, a fungicide treatment and/or other chemical or physical treatment was applied. The plants were grown for 4-14 days in a greenhouse with an approximate 14 hour photoperiod which was maintained at about 29° C. during the day and 26° C. during the night. Nutrients were added as Osmocote (17:6:10, N:P:K+minor nutrients) at 2 g per pot. Water was added on a regular basis to maintain the paddy flood, and supplemental lighting was provided with overhead metal halide 1000-Watt lamps as necessary. The plants were employed for testing when they reached the second or third true leaf stage. A weighed amount, determined by the highest rate to be tested, of each test compound was placed in a 120 mL glass vial and was dissolved in 20 mL of acetone to obtain concentrated stock solutions. […] Application rates of ½×, ¼×, ⅛× and 1/16× of the high rate were obtained by injecting an appropriate amount of the stock solution into the aqueous layer of the paddy. Control plants were treated in the same manner with the solvent blank. The treated plants and control plants were placed in a greenhouse as described above and water was added as needed to maintain a paddy flood.

Echinochloa crus-galli = assay: Herbicidal activity in transplanted paddy rice; assay type: in vivo; conditions: paddy water application, after 3 weeks; for pest or weed control at 70 g/ha: 70 g ai/ha
Protocol: as §3

Monochoria vaginalis = assay: Herbicidal activity in transplanted paddy rice; assay type: in vivo; conditions: paddy water application, after 3 weeks; for pest or weed control at 70 g/ha: 70 g ai/ha
Protocol: as §3

Scirpus juncoides = assay: Herbicidal activity in transplanted paddy rice; assay type: in vivo; conditions: paddy water application, after 3 weeks; for pest or weed control at 70 g/ha: 70 g ai/ha
Protocol: as §3

[7] = system: rice (Orysa sativa var. Japonica); assay: Herbicidal activity in transplanted paddy rice; assay type: in vivo; conditions: transplant rice (crop), paddy water application, after 3 weeks; for pest or weed control at 70 g/ha: 70 g ai/ha
Protocol: as §3

Galium aparine = assay: Postemergence herbicidal activity in cereal crops; assay type: in vivo; conditions: post-emergent, 17.5 g ai/ha, after 20-22 days
Summary of the method: (§4)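 Greenhouse plants at the second or third true leaf stage are sprayed postemergence by track sprayer delivering 187 L/ha. Spray solution is an acetone/water/isopropanol/DMSO mixture with crop oil concentrate and Triton X-77. Treated plants are kept at about 18 °C day/17 °C night under a ~14 h photoperiod with sub-irrigation; blank-sprayed plants serve as controls.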

Lamium purpureum = assay: Postemergence herbicidal activity in cereal crops; assay type: in vivo; conditions: post-emergent, 17.5 g ai/ha, after 20-22 days
Summary of the method: as §4

Papaver rhoeas = assay: Postemergence herbicidal activity in cereal crops; assay type: in vivo; conditions: post-emergent, 17.5 g ai/ha, after 20-22 days
Summary of the method: as §4

Veronica persica = assay: Postemergence herbicidal activity in cereal crops; assay type: in vivo; conditions: post-emergent, 17.5 g ai/ha, after 20-22 days
Summary of the method: as §4

barley (Hordeum vulare) = assay: Postemergence herbicidal activity in cereal crops; assay type: in vivo; conditions: crop, post-emergent, 17.5 g ai/ha, after 20-22 days
Summary of the method: as §4

[8] = system: wheat (Triticum aestivum); assay: Postemergence herbicidal activity in cereal crops; assay type: in vivo; conditions: crop, post-emergent, 17.5 g ai/ha, after 20-22 days
Summary of the method: as §4

[9] = Cyperus difformis, 504 h, read-out: % Control CYPDI
[10] = Echinochloa crus-galli, 504 h, read-out: % Control ECHCG
[11] = Pontederia vaginalis, 504 h, read-out: % Control MOOVA
[12] = Schoenoplectiella juncoides, 504 h, read-out: % Control SCPJU
[13] = Cyperus difformis, 504 h, 17.5 g ai/ha, read-out: % Control CYPDI
[14] = Echinochloa crus-galli, 504 h, 17.5 g ai/ha, read-out: % Control ECHCG
[15] = Pontederia vaginalis, 504 h, 17.5 g ai/ha, read-out: % Control MOOVA
[16] = Schoenoplectiella juncoides, 504 h, 17.5 g ai/ha, read-out: % Control SCPJU
[17] = Oryza sativa, 504 h, 17.5 g ai/ha

SMILES: COC(=O)c1nc(-c2ccc(Br)c(OC)c2Cl)cc(N)c1Cl [Compound 52, 4-Amino-6-(4-bromo-2-chloro-3-methoxyphenyl)-3-chloropyridine-2-carboxylic acid, methyl ester]
- pest or weed control at 140 g/ha [1]: 95%
- pest or weed control at 140 g/ha [2]: 100%
- pest or weed control at 140 g/ha [3]: 100%
- pest or weed control at 140 g/ha [4]: 90%
- pest or weed control at 140 g/ha [5]: 100%
- pest or weed control at 140 g/ha [6]: 100%
- pest or weed control at 70 g/ha (Cyperus difformis; [9]): 100%
- pest or weed control at 70 g/ha (Echinochloa crus-galli; [10]): 60%
- pest or weed control at 70 g/ha (Monochoria vaginalis; [11]): 99%
- pest or weed control at 70 g/ha (Scirpus juncoides; [12]): 95%
- pest or weed control at 70 g/ha ([7]; Oryza sativa, 504 h): 0%
- melting point: 154 to 155 °C

SMILES: CCN(CC)CC.COc1c(Cl)ccc(-c2cc(N)c(Cl)c(C(=O)O)n2)c1F [Compound 135, 4-amino-3-chloro-6-(4-chloro-2-fluoro-3-methoxyphenyl)-pyridine-2-carboxylic acid, triethyl amine salt]
- % Control CYPDI (Cyperus difformis; 17.5 g ai/ha): 100%
- % Control ECHCG (Echinochloa crus-galli; 17.5 g ai/ha): 30%
- % Control MOOVA (Monochoria vaginalis; 17.5 g ai/ha): 100%
- % Control SCPJU (Scirpus juncoides; 17.5 g ai/ha): 85%
- % Control ORYSA ([7]; 17.5 g ai/ha): 10%
- % Control GALAP (Galium aparine): 90%
- % Control LAMPU (Lamium purpureum): 100%
- % Control PAPRH (Papaver rhoeas): 100%
- % Control VERPE (Veronica persica): 60%
- % Control HORVS (barley (Hordeum vulare)): 0%
- % Control TRZAS [8]: 0%

SMILES: COC(=O)c1nc(-c2ccc(Cl)c(C(F)F)c2F)cc(N)c1Cl [Compound 4, 4-Amino-3-chloro-6-(4-chloro-2-fluoro-3-difluoromethylphenyl)pyridine-2-carboxylic acid methyl ester]
- pest or weed control at 140 g/ha [1]: 85%
- pest or weed control at 140 g/ha [2]: 100%
- pest or weed control at 140 g/ha [3]: 100%
- pest or weed control at 17.5 g/ha (Cyperus difformis; [13]): 95%
- pest or weed control at 17.5 g/ha (Echinochloa crus-galli; [14]): 0%
- pest or weed control at 17.5 g/ha (Monochoria vaginalis; [15]): 100%
- pest or weed control at 17.5 g/ha (Scirpus juncoides; [16]): 70%
- pest or weed control at 17.5 g/ha [7, 17]: 0%
- melting point: 145 to 146 °C

SMILES: CC(F)c1c(Cl)ccc(-c2cc(N)cc(C(=O)O)n2)c1Cl (centres unmarked) [Compound 125, 4-Amino-6-[2,4 dichloro-3-(1-fluoroethyl)phenyl]pyridine-2-carboxylic acid]
- pest or weed control at 140 g/ha [4]: 100%
- pest or weed control at 140 g/ha [5]: 100%
- pest or weed control at 140 g/ha [6]: 100%
- pest or weed control at 70 g/ha (Cyperus difformis; [9]): 100%
- pest or weed control at 70 g/ha (Echinochloa crus-galli; [10]): 100%
- pest or weed control at 70 g/ha (Monochoria vaginalis; [11]): 100%
- pest or weed control at 70 g/ha (Scirpus juncoides; [12]): 100%
- pest or weed control at 70 g/ha ([7]; Oryza sativa, 504 h): 5%
- melting point: 169 to 170 °C (dec.)

SMILES: CCOc1c(Cl)ccc(-c2cc(N)c(Cl)c(C(=O)OC)n2)c1F [Compound 41, 4-amino-3-chloro-6-(4-chloro-2-fluoro-3-ethoxyphenyl)-pyridine-2-carboxylic acid methyl ester]
- pest or weed control at 140 g/ha [1]: 98%
- pest or weed control at 140 g/ha [2]: 85%
- pest or weed control at 140 g/ha [3]: 95%
- pest or weed control at 140 g/ha [4]: 90%
- pest or weed control at 140 g/ha [5]: 50%
- pest or weed control at 140 g/ha [6]: 80%
- pest or weed control at 17.5 g/ha (Cyperus difformis; [13]): 100%
- pest or weed control at 17.5 g/ha (Echinochloa crus-galli; [14]): 50%
- pest or weed control at 17.5 g/ha (Monochoria vaginalis; [15]): 100%
- pest or weed control at 17.5 g/ha (Scirpus juncoides; [16]): 90%
- pest or weed control at 17.5 g/ha [7, 17]: 10%
- melting point: 154 to 156 °C

SMILES: CCOc1c(Cl)ccc(-c2cc(N)c(Cl)c(C(=O)OC)n2)c1Cl [Compound 7, 4-Amino-3-chloro-6-(2,4-dichloro-3-ethoxyphenyl)pyridine-2-carboxylic acid methyl ester]
- pest or weed control at 140 g/ha [1]: 95%
- pest or weed control at 140 g/ha [2]: 90%
- pest or weed control at 140 g/ha [3]: 100%
- pest or weed control at 70 g/ha (Cyperus difformis; [9]): 100%
- pest or weed control at 70 g/ha (Echinochloa crus-galli; [10]): 100%
- pest or weed control at 70 g/ha (Monochoria vaginalis; [11]): 100%
- pest or weed control at 70 g/ha (Scirpus juncoides; [12]): 85%
- pest or weed control at 70 g/ha ([7]; Oryza sativa, 504 h): 10%
- melting point: 132 to 133 °C

SMILES: COC(=O)c1nc(-c2ccc3c(c2F)OCO3)cc(N)c1Cl [Compound 46, 4-Amino-3-chloro-6-(2-fluoro-3,4 methylenedioxyphenyl)pyridine-2-carboxylic acid methyl ester]
- pest or weed control at 140 g/ha [1]: 95%
- pest or weed control at 140 g/ha [2]: 100%
- pest or weed control at 140 g/ha [3]: 100%
- pest or weed control at 35 g/ha (Cyperus difformis; Cyperus difformis, 504 h, 35 g ai/ha, read-out: % Control CYPDI): 100%
- pest or weed control at 35 g/ha (Echinochloa crus-galli; Echinochloa crus-galli, 504 h, 35 g ai/ha, read-out: % Control ECHCG): 20%
- pest or weed control at 35 g/ha (Monochoria vaginalis; Pontederia vaginalis, 504 h, 35 g ai/ha, read-out: % Control MOOVA): 100%
- pest or weed control at 35 g/ha (Scirpus juncoides; Schoenoplectiella juncoides, 504 h, 35 g ai/ha, read-out: % Control SCPJU): 100%
- pest or weed control at 35 g/ha ([7]; Oryza sativa, 504 h, 35 g ai/ha): 0%
- melting point: 139 to 141 °C
